Remaining binding data for two compounds are collected here from article PMC9856672, “SGC-CAMKK2-1: A Chemical Probe for CAMKK2” (Cells, 2023).

One experiment deals with T1, MAP4K4 (Homo sapiens, UniProt O95819).
T1 construct: purchased Eurofins DiscoverX KINOMEscan
The experiment is described as follows: KINOMEscan 1 μM, MAP4K4. To be noted: 1000 nM; Entrez MAP4K4; read-out: Percent Control. It counts as binding. The text has this: (§1) Supplement cells-12-00287-s001.zip/File S2. KinomeScan data for the CAMKK2 probe and negative control.xlsx, sheet "SGC-CAMKK2-1" | column: Percent Control

In the next experiment the target is T2, CLK1 (Homo sapiens, UniProt P49759).
T2 construct: purchased Eurofins DiscoverX KINOMEscan
The experiment is described as follows: KINOMEscan 1 μM, CLK1. It counts as binding. As to conditions: 1000 nM; Entrez CLK1; read-out: Percent Control.
Source text: as §1

The next experiment concerns the target T3, HIPK2 (Homo sapiens, UniProt Q9H2X6).
T3 construct: purchased Eurofins DiscoverX KINOMEscan
The experiment is described as follows: KINOMEscan 1 μM, HIPK2. It counts as binding. To be noted: 1000 nM; Entrez HIPK2; read-out: Percent Control.
Source text: as §1

A further experiment addresses T4, DMPK (Homo sapiens, UniProt Q09013).
T4 construct: purchased Eurofins DiscoverX KINOMEscan
The experiment is described as follows: KINOMEscan 1 μM, DMPK. It counts as binding. To be noted: 1000 nM; Entrez DMPK; read-out: Percent Control.
Source text: as §1

Another experiment addresses T5, TNIK (Homo sapiens, UniProt Q9UKE5).
T5 construct: purchased Eurofins DiscoverX KINOMEscan
The experiment is described as follows: KINOMEscan 1 μM, TNIK. In kind it is binding. As to conditions: 1000 nM; Entrez TNIK; read-out: Percent Control.
Source text: as §1

A further experiment deals with T6, PYK2 (Homo sapiens, UniProt Q14289).
T6 construct: purchased Eurofins DiscoverX KINOMEscan
The experiment is described as follows: DiscoverX KINOMEscan binding assay at 1 μM, PYK2. As to conditions: PYK2 (PTK2B); Compound Concentration 1000 nM; read-out: Percent Control.
Source text: as §1

The target of another experiment is T7, DCAMKL1 (Homo sapiens, UniProt O15075).
T7 construct: purchased Eurofins DiscoverX KINOMEscan
The experiment is described as follows: KINOMEscan 1 μM, DCAMKL1. It counts as binding. To be noted: 1000 nM; Entrez DCLK1; read-out: Percent Control.
Source text: as §1

Another experiment concerns the target T8, PIK3CA(C420R) (Homo sapiens, UniProt P42336, C420R).
T8 construct: purchased Eurofins DiscoverX KINOMEscan
The experiment is described as follows: DiscoverX KINOMEscan binding assay at 1 μM, PIK3CA(C420R). To be noted: Compound Concentration 1000 nM, read-out: Percent Control.
Source text: as §1

The next experiment addresses T9, PDGFRB (Homo sapiens, UniProt P09619).
T9 construct: purchased Eurofins DiscoverX KINOMEscan
The experiment is described as follows: DiscoverX KINOMEscan binding assay at 1 μM, PDGFRB. To be noted: Compound Concentration 1000 nM, read-out: Percent Control.
Source text: as §1

For another experiment, the target named is T10, EGFR(G719C) (Homo sapiens, UniProt P00533, G719C).
T10 construct: purchased Eurofins DiscoverX KINOMEscan
The experiment is described as follows: KINOMEscan 1 μM, EGFR(G719C). In kind it is binding. As to conditions: 1000 nM; Entrez EGFR; read-out: Percent Control.
Source text: as §1

The next experiment has as its target T11, MINK (Homo sapiens, UniProt Q8N4C8).
T11 construct: purchased Eurofins DiscoverX KINOMEscan
The experiment is described as follows: KINOMEscan 1 μM, MINK. It counts as binding. As to conditions: 1000 nM; Entrez MINK1; read-out: Percent Control.
Source text: as §1

In another experiment the target is T12, SNARK (Homo sapiens, UniProt Q9H093).
T12 construct: purchased Eurofins DiscoverX KINOMEscan
The experiment is described as follows: DiscoverX KINOMEscan binding assay at 1 μM, SNARK. To be noted: SNARK (NUAK2); Compound Concentration 1000 nM; read-out: Percent Control.
Source text: as §1

In the next experiment the target is T13, MET (Homo sapiens, UniProt P08581).
T13 construct: purchased Eurofins DiscoverX KINOMEscan
The experiment is described as follows: KINOMEscan 1 μM, MET. In kind it is binding. As to conditions: 1000 nM; Entrez MET; read-out: Percent Control.
Source text: as §1

Another experiment addresses T14, BRAF(V600E) (Homo sapiens, UniProt P15056, V600E).
T14 construct: purchased Eurofins DiscoverX KINOMEscan
The experiment is described as follows: KINOMEscan at 1 μM, BRAF(V600E). In kind it is binding. To be noted: 1000 nM, read-out: Percent Control. The text has this:
(§2) Supplement cells-12-00287-s001.zip/File S2. KinomeScan data for the CAMKK2 probe and negative control.xlsx, sheet "SGC-CAMKK2-1N" | column: Percent Control

The target of another experiment is T15, SRPK1 (Homo sapiens, UniProt Q96SB4).
T15 construct: purchased Eurofins DiscoverX KINOMEscan
The experiment is described as follows: KINOMEscan at 1 μM, SRPK1. In kind it is binding. To be noted: 1000 nM, read-out: Percent Control.
Source text: as §2

The next experiment has as its target T16, ABL1-nonphosphorylated (Homo sapiens, UniProt P00519).
T16 construct: purchased Eurofins DiscoverX KINOMEscan
The experiment is described as follows: KINOMEscan at 1 μM, ABL1-nonphosphorylated. It counts as binding. As to conditions: 1000 nM, read-out: Percent Control.
Source text: as §2

In a further experiment the target is T17, PFPK5(P.falciparum) (Plasmodium falciparum, UniProt P61075).
T17 construct: purchased Eurofins DiscoverX KINOMEscan
The experiment is described as follows: KINOMEscan at 1 μM, PFPK5(P.falciparum). In kind it is binding. As to conditions: 1000 nM, read-out: Percent Control.
Source text: as §2

The target in another experiment is T18, CDKL3 (Homo sapiens, UniProt Q8IVW4).
T18 construct: purchased Eurofins DiscoverX KINOMEscan
The experiment is described as follows: KINOMEscan at 1 μM, CDKL3. As to conditions: 1000 nM, read-out: Percent Control. It counts as binding.
Source text: as §2

In the next experiment the target is T19, YANK2 (Homo sapiens, UniProt Q9NY57).
T19 construct: purchased Eurofins DiscoverX KINOMEscan
The experiment is described as follows: KINOMEscan binding assay at 1 μM, YANK2. To be noted: Compound Concentration 1000 nM; read-out: Percent Control.
Source text: as §2

Another experiment has as its target T20, LTK (Homo sapiens, UniProt P29376).
T20 construct: purchased Eurofins DiscoverX KINOMEscan
The experiment is described as follows: KINOMEscan binding assay at 1 μM, LTK. To be noted: Compound Concentration 1000 nM; read-out: Percent Control.
Source text: as §2

The target in a further experiment is T21, EPHA4 (Homo sapiens, UniProt P54764).
T21 construct: purchased Eurofins DiscoverX KINOMEscan
The experiment is described as follows: KINOMEscan at 1 μM, EPHA4. It counts as binding. As to conditions: 1000 nM, read-out: Percent Control.
Source text: as §2

Another experiment concerns the target T22, ALK(L1196M) (Homo sapiens, UniProt Q9UM73, L1196M).
T22 construct: purchased Eurofins DiscoverX KINOMEscan
The experiment is described as follows: KINOMEscan at 1 μM, ALK(L1196M). It counts as binding. To be noted: 1000 nM, read-out: Percent Control.
Source text: as §2

Another experiment addresses T23, MYO3A (Homo sapiens, UniProt Q8NEV4).
T23 construct: purchased Eurofins DiscoverX KINOMEscan
The experiment is described as follows: KINOMEscan at 1 μM, MYO3A. It counts as binding. To be noted: 1000 nM, read-out: Percent Control.
Source text: as §2

The next experiment addresses T24, TAOK3 (Homo sapiens, UniProt Q9H2K8).
T24 construct: purchased Eurofins DiscoverX KINOMEscan
The experiment is described as follows: KINOMEscan at 1 μM, TAOK3. As to conditions: 1000 nM, read-out: Percent Control. In kind it is binding.
Source text: as §2

The next experiment concerns the target T25, WNK3 (Homo sapiens, UniProt Q9BYP7).
T25 construct: purchased Eurofins DiscoverX KINOMEscan
The experiment is described as follows: KINOMEscan at 1 μM, WNK3. It counts as binding. As to conditions: 1000 nM, read-out: Percent Control.
Source text: as §2

In another experiment the target is T26, EGFR (Homo sapiens, UniProt P00533).
T26 construct: purchased Eurofins DiscoverX KINOMEscan
The experiment is described as follows: KINOMEscan at 1 μM, EGFR. It counts as binding. As to conditions: 1000 nM, read-out: Percent Control.
Source text: as §2

The target of a further experiment is T27, SRPK3 (Homo sapiens, UniProt Q9UPE1).
T27 construct: purchased Eurofins DiscoverX KINOMEscan
The experiment is described as follows: KINOMEscan binding assay at 1 μM, SRPK3. To be noted: Compound Concentration 1000 nM; read-out: Percent Control.
Source text: as §2

The target in another experiment is T28, AAK1 (Homo sapiens, UniProt Q2M2I8).
T28 construct: purchased Eurofins DiscoverX KINOMEscan
The experiment is described as follows: KINOMEscan at 1 μM, AAK1. To be noted: 1000 nM, read-out: Percent Control. In kind it is binding.
Source text: as §2

The target in a further experiment is T29, NEK11 (Homo sapiens, UniProt Q8NG66).
T29 construct: purchased Eurofins DiscoverX KINOMEscan
The experiment is described as follows: KINOMEscan at 1 μM, NEK11. To be noted: 1000 nM, read-out: Percent Control. It counts as binding.
Source text: as §2

Another experiment concerns the target T30, MLK1 (Homo sapiens, UniProt P80192).
T30 construct: purchased Eurofins DiscoverX KINOMEscan
The experiment is described as follows: KINOMEscan at 1 μM, MLK1. It counts as binding. As to conditions: 1000 nM, read-out: Percent Control.
Source text: as §2

For the next experiment, the target named is T31, INSRR (Homo sapiens, UniProt P14616).
T31 construct: purchased Eurofins DiscoverX KINOMEscan
The experiment is described as follows: KINOMEscan at 1 μM, INSRR. It counts as binding. As to conditions: 1000 nM, read-out: Percent Control.
Source text: as §2

Another experiment concerns the target T32, CDK4-cyclinD3 (Homo sapiens, UniProt P11802).
T32 construct: purchased Eurofins DiscoverX KINOMEscan
The experiment is described as follows: KINOMEscan at 1 μM, CDK4-cyclinD3. In kind it is binding. As to conditions: 1000 nM, read-out: Percent Control.
Source text: as §2

The target in the next experiment is T33, PRKD3 (Homo sapiens, UniProt O94806).
T33 construct: purchased Eurofins DiscoverX KINOMEscan
The experiment is described as follows: KINOMEscan at 1 μM, PRKD3. It counts as binding. As to conditions: 1000 nM, read-out: Percent Control.
Source text: as §2

For a further experiment, the target named is T34, EGFR(S752-I759del) (Homo sapiens, UniProt P00533, DEL752-759).
T34 construct: purchased Eurofins DiscoverX KINOMEscan
The experiment is described as follows: KINOMEscan binding assay at 1 μM, EGFR(S752-I759del). As to conditions: Compound Concentration 1000 nM; read-out: Percent Control.
Source text: as §2

The target in experiment [1] is T35, ABL1(E255K)-phosphorylated (Homo sapiens, UniProt P00519, E255K).
T35 construct: purchased Eurofins DiscoverX KINOMEscan
The experiment is described as follows: KINOMEscan at 1 μM, ABL1(E255K)-phosphorylated. In kind it is binding. To be noted: 1000 nM, read-out: Percent Control.
Source text: as §2

T2 sequence (P49759 whole entry): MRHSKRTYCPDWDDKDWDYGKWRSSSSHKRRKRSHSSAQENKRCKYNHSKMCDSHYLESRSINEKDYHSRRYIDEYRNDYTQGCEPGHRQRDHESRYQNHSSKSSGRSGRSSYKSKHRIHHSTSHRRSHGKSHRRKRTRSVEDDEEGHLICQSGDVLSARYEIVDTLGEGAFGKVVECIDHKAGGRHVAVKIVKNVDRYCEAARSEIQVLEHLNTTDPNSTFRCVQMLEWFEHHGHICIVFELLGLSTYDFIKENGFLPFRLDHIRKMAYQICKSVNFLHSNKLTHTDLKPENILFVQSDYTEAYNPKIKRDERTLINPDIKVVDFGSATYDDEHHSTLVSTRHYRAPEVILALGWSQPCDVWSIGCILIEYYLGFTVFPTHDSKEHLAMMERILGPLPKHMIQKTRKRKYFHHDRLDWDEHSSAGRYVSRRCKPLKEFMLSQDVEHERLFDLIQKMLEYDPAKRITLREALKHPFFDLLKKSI
T8 sequence (P42336 whole entry C420R): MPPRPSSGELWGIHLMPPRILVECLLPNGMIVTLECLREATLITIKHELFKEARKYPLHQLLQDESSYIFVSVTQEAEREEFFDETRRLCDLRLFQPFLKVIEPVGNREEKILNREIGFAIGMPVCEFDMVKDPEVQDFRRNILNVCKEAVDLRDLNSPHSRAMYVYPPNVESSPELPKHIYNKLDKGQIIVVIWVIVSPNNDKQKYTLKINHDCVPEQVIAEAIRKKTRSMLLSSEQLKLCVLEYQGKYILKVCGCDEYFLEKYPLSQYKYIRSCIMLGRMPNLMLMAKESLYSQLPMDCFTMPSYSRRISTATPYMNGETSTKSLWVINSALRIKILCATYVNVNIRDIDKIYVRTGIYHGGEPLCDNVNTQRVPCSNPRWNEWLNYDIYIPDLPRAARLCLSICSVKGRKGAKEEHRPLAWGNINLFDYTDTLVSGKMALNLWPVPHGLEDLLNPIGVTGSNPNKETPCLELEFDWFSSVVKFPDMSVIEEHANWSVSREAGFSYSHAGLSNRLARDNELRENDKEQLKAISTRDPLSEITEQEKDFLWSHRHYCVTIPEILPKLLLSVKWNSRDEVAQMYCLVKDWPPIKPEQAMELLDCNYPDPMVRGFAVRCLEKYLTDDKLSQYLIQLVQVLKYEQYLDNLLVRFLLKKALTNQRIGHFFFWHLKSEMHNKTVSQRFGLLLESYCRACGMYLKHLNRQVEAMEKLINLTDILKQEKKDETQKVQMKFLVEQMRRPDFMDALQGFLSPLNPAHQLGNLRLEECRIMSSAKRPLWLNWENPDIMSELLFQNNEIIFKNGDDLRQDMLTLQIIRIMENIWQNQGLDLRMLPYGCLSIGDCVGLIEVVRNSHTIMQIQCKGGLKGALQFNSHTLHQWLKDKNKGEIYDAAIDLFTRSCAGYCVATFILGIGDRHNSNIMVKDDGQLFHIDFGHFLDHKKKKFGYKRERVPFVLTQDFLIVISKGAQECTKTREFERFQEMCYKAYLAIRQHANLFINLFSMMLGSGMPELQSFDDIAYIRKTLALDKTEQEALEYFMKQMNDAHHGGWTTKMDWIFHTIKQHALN
T28 sequence (Q2M2I8 whole entry): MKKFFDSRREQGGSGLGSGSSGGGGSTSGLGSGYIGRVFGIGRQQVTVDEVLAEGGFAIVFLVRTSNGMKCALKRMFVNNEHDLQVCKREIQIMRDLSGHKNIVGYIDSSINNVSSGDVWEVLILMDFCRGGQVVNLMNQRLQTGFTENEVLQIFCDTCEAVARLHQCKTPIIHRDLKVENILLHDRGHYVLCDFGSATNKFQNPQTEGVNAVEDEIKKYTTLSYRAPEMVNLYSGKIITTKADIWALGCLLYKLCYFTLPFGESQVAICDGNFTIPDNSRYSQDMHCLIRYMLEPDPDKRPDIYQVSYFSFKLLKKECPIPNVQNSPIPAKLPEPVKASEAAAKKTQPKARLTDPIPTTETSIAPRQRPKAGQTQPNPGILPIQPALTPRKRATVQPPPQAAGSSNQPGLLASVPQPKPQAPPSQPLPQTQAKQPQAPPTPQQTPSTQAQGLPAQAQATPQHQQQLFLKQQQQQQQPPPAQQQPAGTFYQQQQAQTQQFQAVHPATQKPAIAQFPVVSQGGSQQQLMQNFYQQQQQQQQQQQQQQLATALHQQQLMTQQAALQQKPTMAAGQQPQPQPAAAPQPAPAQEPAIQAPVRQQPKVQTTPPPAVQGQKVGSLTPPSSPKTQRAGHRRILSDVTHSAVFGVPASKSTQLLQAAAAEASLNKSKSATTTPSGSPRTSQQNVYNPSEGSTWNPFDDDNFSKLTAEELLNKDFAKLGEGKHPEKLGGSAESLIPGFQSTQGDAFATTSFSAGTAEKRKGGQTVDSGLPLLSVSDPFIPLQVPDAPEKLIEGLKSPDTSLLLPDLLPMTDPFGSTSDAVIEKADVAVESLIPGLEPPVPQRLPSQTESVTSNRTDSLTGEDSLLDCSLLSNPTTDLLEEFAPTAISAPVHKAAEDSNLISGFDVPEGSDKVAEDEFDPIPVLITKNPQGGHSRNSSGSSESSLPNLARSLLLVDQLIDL
T13 sequence (P08581 25-1390): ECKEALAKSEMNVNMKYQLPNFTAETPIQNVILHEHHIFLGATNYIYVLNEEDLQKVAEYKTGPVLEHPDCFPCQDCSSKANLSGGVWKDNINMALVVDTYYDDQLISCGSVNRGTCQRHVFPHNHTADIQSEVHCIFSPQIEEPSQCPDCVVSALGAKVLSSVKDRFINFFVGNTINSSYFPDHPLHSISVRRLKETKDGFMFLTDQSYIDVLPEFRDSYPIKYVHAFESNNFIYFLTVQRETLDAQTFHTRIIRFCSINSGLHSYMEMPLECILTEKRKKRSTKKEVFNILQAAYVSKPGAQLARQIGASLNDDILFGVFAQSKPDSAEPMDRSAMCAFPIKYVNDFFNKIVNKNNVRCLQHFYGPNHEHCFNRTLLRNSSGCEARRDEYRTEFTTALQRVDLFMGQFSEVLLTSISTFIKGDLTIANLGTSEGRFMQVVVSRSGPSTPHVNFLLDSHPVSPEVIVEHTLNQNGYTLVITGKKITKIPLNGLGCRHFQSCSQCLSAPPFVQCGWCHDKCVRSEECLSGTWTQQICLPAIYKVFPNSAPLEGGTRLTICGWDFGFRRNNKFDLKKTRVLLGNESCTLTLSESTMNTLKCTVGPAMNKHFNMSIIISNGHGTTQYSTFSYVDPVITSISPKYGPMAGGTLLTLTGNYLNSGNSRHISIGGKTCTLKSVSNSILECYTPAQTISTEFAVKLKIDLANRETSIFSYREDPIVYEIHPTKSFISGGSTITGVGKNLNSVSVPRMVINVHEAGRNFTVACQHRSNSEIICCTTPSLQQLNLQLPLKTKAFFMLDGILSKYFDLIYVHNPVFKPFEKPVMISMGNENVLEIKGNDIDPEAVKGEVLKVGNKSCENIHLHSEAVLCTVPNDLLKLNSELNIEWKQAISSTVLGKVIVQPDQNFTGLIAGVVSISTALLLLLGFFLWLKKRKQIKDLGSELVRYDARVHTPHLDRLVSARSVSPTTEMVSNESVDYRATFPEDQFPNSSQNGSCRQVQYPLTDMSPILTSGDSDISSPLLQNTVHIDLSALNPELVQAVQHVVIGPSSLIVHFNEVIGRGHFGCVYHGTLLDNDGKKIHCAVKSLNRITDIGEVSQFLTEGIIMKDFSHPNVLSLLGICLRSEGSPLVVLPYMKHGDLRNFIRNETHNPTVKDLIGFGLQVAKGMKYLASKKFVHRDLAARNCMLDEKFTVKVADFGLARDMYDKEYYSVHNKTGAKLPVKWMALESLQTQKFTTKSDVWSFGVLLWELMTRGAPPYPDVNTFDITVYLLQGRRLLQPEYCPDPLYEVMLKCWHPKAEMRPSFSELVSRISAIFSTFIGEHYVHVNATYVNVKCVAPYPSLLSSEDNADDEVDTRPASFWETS
T32 sequence (P11802 whole entry): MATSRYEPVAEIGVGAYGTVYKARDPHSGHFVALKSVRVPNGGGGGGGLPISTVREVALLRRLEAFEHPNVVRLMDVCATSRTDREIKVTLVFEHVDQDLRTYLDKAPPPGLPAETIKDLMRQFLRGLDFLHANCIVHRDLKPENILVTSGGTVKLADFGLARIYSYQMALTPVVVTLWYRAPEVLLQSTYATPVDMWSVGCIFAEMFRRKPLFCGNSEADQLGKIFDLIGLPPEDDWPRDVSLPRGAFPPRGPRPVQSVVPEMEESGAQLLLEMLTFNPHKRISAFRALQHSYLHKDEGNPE
T32 sequence (P30281 whole entry partner): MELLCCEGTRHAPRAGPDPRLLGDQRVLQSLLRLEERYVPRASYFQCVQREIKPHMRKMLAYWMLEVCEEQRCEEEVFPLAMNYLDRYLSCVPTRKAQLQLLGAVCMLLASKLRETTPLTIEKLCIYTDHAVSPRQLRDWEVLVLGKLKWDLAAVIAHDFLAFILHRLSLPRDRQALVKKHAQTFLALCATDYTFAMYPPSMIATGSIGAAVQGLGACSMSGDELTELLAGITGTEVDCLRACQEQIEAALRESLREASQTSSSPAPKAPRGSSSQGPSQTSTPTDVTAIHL
T17 sequence (P61075 whole entry): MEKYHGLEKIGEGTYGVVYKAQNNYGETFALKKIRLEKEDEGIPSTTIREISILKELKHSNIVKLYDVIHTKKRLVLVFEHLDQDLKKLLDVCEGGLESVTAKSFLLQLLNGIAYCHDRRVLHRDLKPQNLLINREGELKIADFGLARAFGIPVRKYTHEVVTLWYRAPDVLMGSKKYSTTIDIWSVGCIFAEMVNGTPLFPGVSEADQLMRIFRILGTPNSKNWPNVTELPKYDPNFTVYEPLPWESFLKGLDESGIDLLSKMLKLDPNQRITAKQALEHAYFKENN

In the case of `Cc1cccc(-c2cnc3occ(-c4ccc(C(=O)O)c(C5CCCC5)c4)c3c2)c1` [SGC-CAMKK2-1 (YL-36)], the remaining binding at 1 µM came out at 85% on MAP4K4; 100% on CLK1; 100% on HIPK2; 92% on DMPK; 92% at TNIK; 100% on PYK2. Besides, the remaining binding at 1 µM worked out at 100% at DCAMKL1; 100% on PIK3CA(C420R); 100% on PDGFRB; 55% at EGFR(G719C); 100% on MINK; 100% on SNARK. The remaining binding at 1 µM at MET stood at 92%.

Consider `O=C(O)c1ccc(-c2coc3ncc(-c4ccccc4)cc23)cc1Cl` [SGC-CAMKK2-1N (UNC-YL-83)], for which the remaining binding at 1 µM was 87% on BRAF(V600E); 85% at SRPK1; 66% on ABL1-nonphosphorylated; 69% at PFPK5(P.falciparum); 63% at CDKL3; 100% on YANK2. Further, the remaining binding at 1 µM on LTK came to 100%; at EPHA4, 86%; on ALK(L1196M) it was 92%; at MYO3A, 72%; at TAOK3, 79%; on WNK3 it was 95%. Also, the remaining binding at 1 µM on EGFR turned out to be 100%; on SRPK3 it was 100%; on AAK1 it was 87%; on NEK11 it was 62%; at MLK1, 82%; at INSRR it was 96%. For the same compound, the remaining binding at 1 µM at CDK4-cyclinD3 is 87%; at PRKD3, 93%; at EGFR(S752-I759del), 100%; in [1], 65%.
